Results reported in patent US20240083903A1, “ARYL ETHER COMPOUNDS AS TEAD MODULATORS” (Merck Sharp& Dohme LLC, priority 2021, published 2024).

System: TEAD Reporter-MCF7 cell line
Assay: YAP/TEAD cellular activity assay: inhibition of TEAD-Luc activity in TEAD Reporter-MCF7 cell line
Type: cell-based, human
Conditions: Homo sapiens, MCF7, 24 h, TEAD Reporter-MCF7 cells, 24 hours incubation with compound, luciferase readout
Experimental: YAP/TEAD Cellular Activity Assay
Quantitation of Compound Potency on the Inhibition of TEAD-Luc Activity in TEAD Reporter-MCF7 Cell Line.
The TEAD Reporter-MCF7 cell line containing the firefly luciferase gene under the control of TEAD responsive elements stably integrated into the human breast cancer cell line was purchased from BPS Bioscience (Cat #60618). The cells were cultured with complete culture medium ([…], 1 mM sodium pyruvate, 10% fetal bovine serum, 10 ng/mL insulin and 400 ug/mL G418 sulfate) prior to the assay. For the assay, the cells were harvested, resuspended in the complete culture medium without G418, and seeded into white solid bottom 384-well cell culture microplates in 25 uL with 10,000 cells per well. The plates were incubated at 37° C. in a CO2 incubator for 20-24 hours and the compounds were then transferred from Echo LDV plates directly into the 384-well white tissue culture plates with an Echo. The plates were incubated at 37° C. in a CO2 incubator for 24 hours and equal volume of ONE-Glo™ EX Luciferase reagent (Promega, Cat #E8150) was added. After mixing on a shaker at room temperature for 10 minutes, the luciferase activity was measured with an Envision. The percentage inhibition and EC50 values of compounds were calculated with Spotfire.
Required Materials • 1. TEAD reporter-MCF-7 Cells (BPS Bioscience, #60618) • 2. Complete Cell Culture Medium (without selection antibiotics) • EMEM 89% (ATCC, #30-2003) • FBS 10% (Hyclone, #SH30088.03) • 1% Non essential amino acids (Gibco, • 1 mM sodium pyruvate (Gibco, • Pen/Strep, 1% (Gibco, #15140-122) • 10 ng/mL insulin (Sigma, #10516) • 3. Complete Cell Culture Medium (with selection antibiotics) • EMEM 89% (ATCC, #30-2003) • F1% Non essential amino acids (Gibco, • 1 mM sodium pyruvate (Gibco, • BS 10% (Hyclone, #SH30088.03) • 10 ng/mL insulin (Sigma, #10516) • 400 ug/mL G418 sulfate (Agilent, #200049-21) • 4. Miscellaneous tissue culture equipment and reagents. • 5. White solid 384-well tissue culture plate (Greiner, Cat #781080) • 6. One Glo EX luciferase assay system (Promega, #E8150)
The following table tabulates the biological data disclosed for the current invention. The biological data was collected using the methodology described above. For each compound, TEAD-Luc EC50 values are listed in nanomolar (nM) concentration units.

| Structure (SMILES) | EC50 |
| --- | --- |
| CNS(=O)(=O)c1ccc(Oc2ccc(C(F)(F)F)cc2)c(-c2nc(C)n3c2COCC3)c1 [1-22, N-methyl-3-(3-methyl-5,6-dihydro-8H-imidazo[5,1-c][1,4]oxazin-1-yl)-4-[4-(trifluoromethyl)phenoxy]benzene-1-sulfonamide] | 1820 nM |
| CNS(=O)(=O)c1ccc(Oc2ccc(C(F)(F)F)cc2)c(-c2cnc3ccc(Cl)nn23)c1 [1-23, 3-(6-chloroimidazo[1,2-b]pyridazin-3-yl)-N-methyl-4-[4-(trifluoromethyl)phenoxy]benzene-1-sulfonamide] | 3340 nM |
| CNS(=O)(=O)c1ccc(Oc2ccc(C(F)(F)F)cc2)c(-c2cc3n(n2)CCCC3)c1 [1-36, N-methyl-3-(4,5,6,7-tetrahydropyrazolo[1,5-a]pyridin-2-yl)-4-[4-(trifluoromethyl)phenoxy]benzene-1-sulfonamide] | 4.6 nM |
| CNS(=O)(=O)c1ccc(Oc2ccc(C(F)(F)F)cc2)c(-c2ncn3c2CCCC3)c1 [1-37, N-methyl-3-(5,6,7,8-tetrahydroimidazo[1,5-a]pyridin-1-yl)-4-[4-(trifluoromethyl)phenoxy]benzene-1-sulfonamide] | 414 nM |
| CNS(=O)(=O)c1ccc(Oc2ccc(C(F)F)cc2)c(-c2cn3c(n2)CCC3)c1 [1-40, 4-[4-(difluoromethyl)phenoxy]-3-(6,7-dihydro-5H-pyrrolo[1,2-a]imidazol-2-yl)-N-methylbenzene-1-sulfonamide] | 27 nM |
| CNS(=O)(=O)c1ccc(Oc2ccc(C(F)(F)F)cc2)c(-c2cc3n(n2)CCN3)c1 [1-45, 3-(2,3-dihydro-1H-imidazo[1,2-b]pyrazol-6-yl)-N-methyl-4-[4-(trifluoromethyl)phenoxy]benzene-1-sulfonamide] | 64.4 nM |
| CNS(=O)(=O)c1ccc(Oc2ccc(F)cc2)c(-c2cnn3c2OCC3)c1 [1-46, 3-(2,3-dihydropyrazolo[5,1-b]oxazol-7-yl)-4-(4-fluorophenoxy)-N-methylbenzenesulfonamide] | 1860 nM |
| CNS(=O)(=O)c1ccc(Oc2ccc(Cl)cc2)c(-c2cnn3c2OCC3)c1 [1-47, 4-(4-chlorophenoxy)-3-(2,3-dihydropyrazolo[5,1-b]oxazol-7-yl)-N-methylbenzenesulfonamide] | 104 nM |
| CNS(=O)(=O)c1ccc(Oc2ccc(F)c(F)c2)c(-c2cnn3c2OCC3)c1 [1-48, 4-(3,4-difluorophenoxy)-3-(2,3-dihydropyrazolo[5,1-b]oxazol-7-yl)-N-methylbenzenesulfonamide] | 1060 nM |
| CNS(=O)(=O)c1ccc(Oc2cccc(C(F)(F)F)c2)c(-c2cnn3c2OCC3)c1 [1-49, 3-(2,3-dihydropyrazolo[5,1-b]oxazol-7-yl)-N-methyl-4-(3-(trifluoromethyl)phenoxy)benzenesulfonamide] | 315 nM |
| CNS(=O)(=O)c1ccc(Oc2ccc(C(C)=O)cc2)c(-c2cn3c(n2)CCC3)c1 [1-50, 4-(4-acetylphenoxy)-3-(6,7-dihydro-5H-pyrrolo[1,2-a]imidazol-2-yl)-N-methylbenzene-1-sulfonamide] | 416 nM |
| CNS(=O)(=O)c1ccc(Oc2ccc(C(F)(F)F)cc2)c(-c2cnn3c2OCC3)c1 [2-1, 3-(2,3-Dihydropyrazolo[5,1-b]oxazol-7-yl)-N-methyl-4-(4-(trifluoromethyl)phenoxy)benzenesulfonamide] | 26 nM |
| CNS(=O)(=O)c1ccc(Oc2ccc(C(F)(F)F)cc2)c(-c2ccc3cc(OC)nnc3c2)c1 [2-2, 3-(3-Methoxycinnolin-7-yl)-N-methyl-4-[4-(trifluoromethyl)phenoxy]benzene-1-sulfonamide] | 50.5 nM |
| CNS(=O)(=O)c1ccc(Oc2ccc(C(F)(F)F)cc2)c(-c2ccc(OC)c3nc(C(F)(F)F)[nH]c23)c1 [2-3, 3-[4-methoxy-2-(trifluoromethyl)-1H-benzimidazol-7-yl]-N-methyl-4-[4-(trifluoromethyl)phenoxy]benzene-1-sulfonamide] | 4920 nM |
| CNS(=O)(=O)c1ccc(Oc2ccc(C(F)(F)F)cc2)c(-c2ccc3c(c2)CC(=O)N3)c1 [2-4, N-methyl-3-(2-oxo-2,3-dihydro-1H-indol-5-yl)-4-[4-(trifluoromethyl)phenoxy]benzene-1-sulfonamide] | 5480 nM |
| CNS(=O)(=O)c1ccc(Oc2ccc(C(F)(F)F)cc2)c(-c2ccc3[nH]c(=O)[nH]c3c2)c1 [2-5, N-methyl-3-(2-oxo-2,3-dihydro-1H-benzimidazol-5-yl)-4-[4-(trifluoromethyl)phenoxy]benzene-1-sulfonamide] | 4540 nM |
| CNS(=O)(=O)c1ccc(Oc2ccc(C(F)(F)F)cc2)c(-c2ccc3scnc3c2)c1 [2-6, 3-(1,3-benzothiazol-5-yl)-N-methyl-4-[4-(trifluoromethyl)phenoxy]benzene-1-sulfonamide] | 210 nM |

The remaining lines, values ahead:

| EC50 | Structure (SMILES) |
| --- | --- |
| 7140 nM | CNS(=O)(=O)c1ccc(Oc2ccc(C(F)(F)F)cc2)c(-c2cnc3ccccn23)c1 [1-20, 3-(imidazo[1,2-a]pyridin-3-yl)-N-methyl-4-[4-(trifluoromethyl)phenoxy]benzene-1-sulfonamide] |
| 9280 nM | CNS(=O)(=O)c1ccc(Oc2ccc(C(F)(F)F)cc2)c(-c2cnc3c(N)cccn23)c1 [1-21, 3-(8-aminoimidazo[1,2-a]pyridin-3-yl)-N-methyl-4-[4-(trifluoromethyl)phenoxy]benzene-1-sulfonamide] |
| 5390 nM | CNS(=O)(=O)c1ccc(Oc2ccc(C(F)(F)F)cc2)c(-c2cnc3ccc(N)cn23)c1 [1-24, 3-(6-aminoimidazo[1,2-a]pyridin-3-yl)-N-methyl-4-[4-(trifluoromethyl)phenoxy]benzene-1-sulfonamide] |
| 3270 nM | CNS(=O)(=O)c1ccc(Oc2ccc(C(F)(F)F)cc2)c(-c2cnc3cc(C)ccn23)c1 [1-25, N-methyl-3-(7-methylimidazo[1,2-a]pyridin-3-yl)-4-[4-(trifluoromethyl)phenoxy]benzene-1-sulfonamide] |
| 335 nM | CNS(=O)(=O)c1ccc(Oc2ccc(C(F)(F)F)cc2)c(-c2cnc3ncccn23)c1 [1-26, 3-(imidazo[1,2-a]pyrimidin-3-yl)-N-methyl-4-[4-(trifluoromethyl)phenoxy]benzene-1-sulfonamide] |
| 28.4 nM | CNS(=O)(=O)c1ccc(Oc2ccc(C(F)(F)F)cc2)c(-c2cn3ccccc3n2)c1 [1-27, 3-(imidazo[1,2-a]pyridin-2-yl)-N-methyl-4-[4-(trifluoromethyl)phenoxy]benzene-1-sulfonamide] |
| 66.6 nM | CNS(=O)(=O)c1ccc(Oc2ccc(C(F)(F)F)cc2)c(-c2nc3ccccc3s2)c1 [1-28, 3-(1,3-benzothiazol-2-yl)-N-methyl-4-[4-(trifluoromethyl)phenoxy]benzene-1-sulfonamide] |
| 861 nM | CNS(=O)(=O)c1ccc(Oc2ccc(C(F)(F)F)cc2)c(-c2nc3ccccc3o2)c1 [1-29, 3-(1,3-benzoxazol-2-yl)-N-methyl-4-[4-(trifluoromethyl)phenoxy]benzene-1-sulfonamide] |
| 7800 nM | CNS(=O)(=O)c1ccc(Oc2ccc(C(F)(F)F)cc2)c(-c2cn3ccc(C(=O)OC)cc3n2)c1 [1-30, methyl 2-{5-(methylsulfamoyl)-2-[4-(trifluoromethyl)phenoxy]phenyl} imidazo[1,2-a]pyridine-7-carboxylate] |
| 40.6 nM | CNS(=O)(=O)c1ccc(Oc2ccc(C(F)(F)F)cc2)c(-c2cn3ccc(C)cc3n2)c1 [1-31, N-methyl-3-(7-methylimidazo[1,2-a]pyridin-2-yl)-4-[4-(trifluoromethyl)phenoxy]benzene-1-sulfonamide] |
| 62.4 nM | CNS(=O)(=O)c1ccc(Oc2ccc(C(F)(F)F)cc2)c(-c2cn3ccc(F)cc3n2)c1 [1-32, 3-(7-fluoroimidazo[1,2-a]pyridin-2-yl)-N-methyl-4-[4-(trifluoromethyl)phenoxy]benzene-1-sulfonamide] |
| 236 nM | CNS(=O)(=O)c1ccc(Oc2ccc(C(F)(F)F)cc2)c(-c2cn3cccc(C)c3n2)c1 [1-33, N-methyl-3-(8-methylimidazo[1,2-a]pyridin-2-yl)-4-[4-(trifluoromethyl)phenoxy]benzene-1-sulfonamide] |
| 88.5 nM | CNS(=O)(=O)c1ccc(Oc2ccc(C(F)(F)F)cc2)c(-c2cn3cc(C)ccc3n2)c1 [1-34, N-methyl-3-(6-methylimidazo[1,2-a]pyridin-2-yl)-4-[4-(trifluoromethyl)phenoxy]benzene-1-sulfonamide] |
| 99.4 nM | CNS(=O)(=O)c1ccc(Oc2ccc(C(F)(F)F)cc2)c(-c2cc3ccccn3n2)c1 [1-35, N-methyl-3-(pyrazolo[1,5-a]pyridin-2-y1)-4-[4-(trifluoromethyl)phenoxy]benzene-1-sulfonamide] |
